Test results taken from PMC9051980 (Saudi Pharmaceutical Journal : SPJ, 2022).

How the values were obtained:
[1] = test system: cilia of the maxillary mucosa of toads; test: Mucosal irritation; set-up: species or system toad
[2] = Nasal perfusion method; assay type: in vivo, C57 mouse; conditions: at 60 min; 20 mL artificial nasal solution, 1 mg/mL, total dose 20 mg
[3] = Plasma pharmacokinetic evaluation; assay type: in vivo, C57BL/6N mice; conditions: both, C57BL/6N, mouse, po, 0.4 mg/mouse
[4] = In-vitro drug release; assay type: physicochemical; conditions: 34 °C, 200 rpm, artificial nasal fluid
[5] = In-vivo tissue distribution evaluation; conditions: both, C57BL/6N, mouse, po, 0.4 mg/mouse
[6] = test system: plasma CORT; test: Plasma CORT level; assay type: in vivo, C57 mice; conditions: Day 19, compared with Healthy group
[7] = test system: amygdala dopamine transporter (DAT); test: Immunohistochemistry of amygdala DAT; assay type: in vivo, C57 mice; conditions: Day 19, compared with Healthy group
[8] = test system: PTSD mice; test: Open field test; assay type: in vivo, C57 mice
[9] = test system: PTSD mice; test: Freezing response test in fear-conditioning box; assay type: in vivo, C57 mice
[10] = Day 12, compared with Model group
[11] = Day 17, five days after drug withdrawal, compared with Healthy group
[12] = Day 17, five days after drug withdrawal, compared with Model group

## C[C@H](CCC(=O)O)[C@H]1CC[C@H]2[C@@H]3CC[C@@H]4C[C@H](O)CC[C@]4(C)[C@H]3C[C@H](O)[C@]12C [Sodium Deoxycholate]
[1]; 100 μL on toad upper-jaw mucosa, armodafinil 20 mg/mL, sodium deoxycholate 1%
  PVD (persistent vibration duration of cilia): 136.67 ± 26.95 min
[1]; PVD compared with that of the saline group
  PPV (percentage of persistent vibration): 20.69%
[1]; maxillary mucosa of toads
  Ciliary structure / extent of damage of cilia under microscope: obviously prostrate or even exfoliated

## NC(=O)C[S@@+]([O-])C(c1ccccc1)c1ccccc1 [Armodafinil]
[2]
  Mucosal absorptive amount of armodafinil: 2.50 mg
[3]
  AUC(0-t): 9900 ± 5500 ng·h/mL
  Cmax: 3600 ± 2250 ng/mL
  Tmax: 15 min
[4]
  Time at which the release was complete: 2 h
[4]; 20 mg/mL armodafinil
  Released armodafinil percentage when release was complete: 18.12 ± 1.03%
[5]; brain
  AUC(0-t): 1090 ng·h/mL
  Cmax: 259 ± 96 ng/mL
  Tmax: 30 min
[5]; liver
  AUC(0-t): 2380 ng·h/mL
  Cmax: 1150 ± 199 ng/mL
  Tmax: 30 min

## CN[C@H]1CC[C@@H](c2ccc(Cl)c(Cl)c2)c2ccccc21 [Sertraline]
[6]
  Plasma CORT level: decreased
[7]
  DAT expression in amygdala (IOD): significantly increased
[8]; Day 12, compared with Healthy group
  Open field test indicators: fewer crossing times
[8]; [10]
  Active distances in the center of thigmotaxis area: more active distances in the center of thigmotaxis area
  Crossings in the center of thigmotaxis area: more crossings in the center of thigmotaxis area
[8]; Day 12, open field, compared with Model group
  Total active distances: more total active distances
[8]; Day 18, after drug withdrawal, compared with Healthy group
  Crossings and active distances in the center of thigmotaxis area: fewer crossings and active distances in the center of thigmotaxis area
[8]; Day 18, after drug withdrawal, compared with Model group
  Crossing of the center of thigmotaxis area: more frequently
[8]; Day 18, open field, after drug withdrawal, compared with Healthy group
  Total active distances: fewer total active distances
[8]; Day 18, open field, after drug withdrawal, compared with Model group
  Total active distances: increased
[9]; Day 11, compared with Healthy group
  Freezing time: longer freezing time
[9]; Day 11, fear-conditioning box, compared with Healthy group
  Total active distances: shorter total active distances
[9]; Day 11, fear-conditioning box, compared with Model group
  Total active distances: longer total active distances
[9]; [11]
  Freezing time: longer freezing time
  Total active distances: shorter total active distances
[9]; [12]
  Freezing time: shorter freezing time
  Total active distances: longer total active distances
